Experimental data taken from paper PMC3418399 (Molecular microbiology, 2012).
Non-standard residues stand in square brackets, D forms with d.

Columns and labels:
Pma1p ATPase = molecular target: T1, Pma1p ATPase (Saccharomyces cerevisiae, UniProt P05030); experiment: Pma1p ATPase assay; format: biochemical; details: read-out: IC50 Pma1p ATPase; pH 7.0, 10 μM oligomycin
T1 sequence (P05030 1-918): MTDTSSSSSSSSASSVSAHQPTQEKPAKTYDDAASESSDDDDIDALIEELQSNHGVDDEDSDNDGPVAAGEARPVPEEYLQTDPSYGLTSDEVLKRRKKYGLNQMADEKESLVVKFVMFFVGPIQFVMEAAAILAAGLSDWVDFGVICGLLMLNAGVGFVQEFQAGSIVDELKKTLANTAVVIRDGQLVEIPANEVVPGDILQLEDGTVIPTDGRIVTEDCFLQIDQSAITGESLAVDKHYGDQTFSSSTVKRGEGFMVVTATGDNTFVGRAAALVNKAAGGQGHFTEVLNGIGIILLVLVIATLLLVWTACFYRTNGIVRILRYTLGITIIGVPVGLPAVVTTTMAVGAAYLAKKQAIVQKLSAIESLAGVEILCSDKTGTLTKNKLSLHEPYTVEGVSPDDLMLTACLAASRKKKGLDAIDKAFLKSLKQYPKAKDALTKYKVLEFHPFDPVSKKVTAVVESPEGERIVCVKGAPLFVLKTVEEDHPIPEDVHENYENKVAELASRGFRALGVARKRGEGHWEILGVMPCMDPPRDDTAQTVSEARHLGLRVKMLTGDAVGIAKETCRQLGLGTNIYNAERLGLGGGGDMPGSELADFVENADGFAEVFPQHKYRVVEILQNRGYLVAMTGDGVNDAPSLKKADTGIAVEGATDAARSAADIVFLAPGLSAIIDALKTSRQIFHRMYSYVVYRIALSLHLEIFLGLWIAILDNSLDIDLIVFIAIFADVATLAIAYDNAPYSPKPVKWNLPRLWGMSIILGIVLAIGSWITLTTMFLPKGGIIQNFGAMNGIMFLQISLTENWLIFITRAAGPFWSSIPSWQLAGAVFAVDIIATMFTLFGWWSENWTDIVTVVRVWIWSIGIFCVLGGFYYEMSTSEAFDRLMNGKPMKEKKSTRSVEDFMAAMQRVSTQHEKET

EL6 (CaCdr1p Q1445R) = experiment: MIC, liquid microdilution; format: cell-based, Saccharomyces cerevisiae; details: 48 h
TM5 (CaCdr1p V674F) = experiment: MIC, liquid microdilution; format: cell-based, Saccharomyces cerevisiae; details: 48 h
EL4-1 (CaCdr1p Q1226K) = experiment: MIC, liquid microdilution; format: cell-based, Saccharomyces cerevisiae; details: 48 h
EL3 (CaCdr1p Q714K) = experiment: MIC, liquid microdilution; format: cell-based, Saccharomyces cerevisiae; details: 48 h
AD/pABC3 (Control) = experiment: MIC, liquid microdilution; format: cell-based, Saccharomyces cerevisiae; details: 48 h
EL4-2 (CaCdr1p Q1226R) = experiment: MIC, liquid microdilution; format: cell-based, Saccharomyces cerevisiae; details: 48 h
EL1/TM2 (CaCdr1p G547R) = experiment: MIC, liquid microdilution; format: cell-based, Saccharomyces cerevisiae; details: 48 h
[1] = tested on: AD/CDR1 (Wild type CaCdr1p); experiment: MIC, liquid microdilution; format: cell-based, Saccharomyces cerevisiae; details: 48 h
[2] = tested on: AD/CDR1 (Wild type CaCdr1p; AD/CaCDR1B); experiment: Agarose diffusion FLC chemosensitization assay; format: cell-based, Saccharomyces cerevisiae; details: ~6 nmole/disk, agarose diffusion, FLC 40 μg ml^−1
[3] = EL6, Q1445R, milbemycins and micafungin, I95, CSM pH 7.0, 30°C
[4] = TM5, V674F, milbemycins and micafungin, I95, CSM pH 7.0, 30°C
[5] = EL4-1, Q1226K, milbemycins and micafungin, I95, CSM pH 7.0, 30°C
[6] = EL3, Q714K, milbemycins and micafungin, I95, CSM pH 7.0, 30°C
[7] = AD/pABC3, Control, milbemycins and micafungin, I95, CSM pH 7.0, 30°C
[8] = EL4-2, Q1226R, milbemycins and micafungin, I95, CSM pH 7.0, 30°C
[9] = EL1/TM2, G547R, milbemycins and micafungin, I95, CSM pH 7.0, 30°C
[10] = AD/CDR1, Wild type, milbemycins and micafungin, I95, CSM pH 7.0, 30°C

Compound | MIC (EL6 (CaCdr1p Q1445R); Saccharomyces cerevisiae, pH 7) | MIC (TM5 (CaCdr1p V674F); Saccharomyces cerevisiae, pH 7) | MIC (EL4-1 (CaCdr1p Q1226K); Saccharomyces cerevisiae, pH 7) | MIC (EL3 (CaCdr1p Q714K); Saccharomyces cerevisiae, pH 7) | MIC (AD/pABC3 (Control); Saccharomyces cerevisiae, pH 7) | MIC (EL4-2 (CaCdr1p Q1226R); Saccharomyces cerevisiae, pH 7) | MIC (EL1/TM2 (CaCdr1p G547R); Saccharomyces cerevisiae, pH 7) | MIC ([1]; Saccharomyces cerevisiae, pH 7) | MIC (EL6 (CaCdr1p Q1445R); [3]) [µg/mL] | MIC (TM5 (CaCdr1p V674F); [4]) [µg/mL] | MIC (EL4-1 (CaCdr1p Q1226K); [5]) [µg/mL] | MIC (EL3 (CaCdr1p Q714K); [6]) [µg/mL] | MIC (AD/pABC3 (Control); [7]) [µg/mL] | MIC (EL4-2 (CaCdr1p Q1226R); [8]) [µg/mL] | MIC (EL1/TM2 (CaCdr1p G547R); [9]) [µg/mL] | MIC [1, 10] [µg/mL] | further results
D-NH2-FFKWQRRR-CONH2 (H-[dF][dF][dK][dW][dQ][dR][dR][dR]-NH2) |  |  |  |  |  |  |  |  |  |  |  |  |  |  |  |  | IC50 (Pma1p ATPase): 5 µM
C[C@@H]1C[C@@H]([C@H](O)CC2CC(=O)NC(=O)C2)C(=O)[C@@H](C)C1 [Cycloheximide] | 2 µg/mL | 1 µg/mL | 0.5 µg/mL | 1 µg/mL | 0.008 µg/mL | 1 µg/mL | 0.5 µg/mL | 1 µg/mL |  |  |  |  |  |  |  |  | 
C=CC[C@@H]1/C=C(\C)C[C@H](C)C[C@H](OC)[C@H]2O[C@@](O)(C(=O)C(=O)N3CCCC[C@H]3C(=O)O[C@H](/C(C)=C/[C@@H]3CC[C@@H](O)[C@H](OC)C3)[C@H](C)[C@@H](O)CC1=O)[C@H](C)C[C@@H]2OC [FK506] | 40 µg/mL | 40 µg/mL | 40 µg/mL | 40 µg/mL | 0.313 µg/mL | 40 µg/mL | 40 µg/mL | 40 µg/mL |  |  |  |  |  |  |  |  | 
COC(=O)c1ccccc1-c1c2ccc(=N)cc-2oc2cc(N)ccc12 [Rhodamine 123] | 200 µM | 150 µM | 150 µM | 200 µM | 8 µM | 200 µM | 150 µM | 300 µM |  |  |  |  |  |  |  |  | 
Enniatin |  |  |  |  |  |  |  |  |  |  |  |  |  |  |  |  | MIC (EL6 (CaCdr1p Q1445R); EL6, Q1445R, cycloheximide, enniatin and FK506, CSM pH 7.0, 30°C): 4 µg/mL; MIC (TM5 (CaCdr1p V674F); TM5, V674F, cycloheximide, enniatin and FK506, CSM pH 7.0, 30°C): 4 µg/mL; MIC (EL4-1 (CaCdr1p Q1226K); EL4-1, Q1226K, cycloheximide, enniatin and FK506, CSM pH 7.0, 30°C): 4 µg/mL; MIC (EL3 (CaCdr1p Q714K); EL3, Q714K, cycloheximide, enniatin and FK506, CSM pH 7.0, 30°C): 4 µg/mL; MIC (AD/pABC3 (Control); AD/pABC3, Control, cycloheximide, enniatin and FK506, CSM pH 7.0, 30°C): 4 µg/mL; MIC (EL4-2 (CaCdr1p Q1226R); EL4-2, Q1226R, cycloheximide, enniatin and FK506, CSM pH 7.0, 30°C): 4 µg/mL; MIC (EL1/TM2 (CaCdr1p G547R); EL1/TM2, G547R, cycloheximide, enniatin and FK506, CSM pH 7.0, 30°C): 4 µg/mL; MIC ([1]; AD/CDR1, Wild type, cycloheximide, enniatin and FK506, CSM pH 7.0, 30°C): 4 µg/mL
Milbemycin β9 |  |  |  |  |  |  |  |  | >8 | >8 | >8 | 8 | 8 | >8 | >8 | >8 | 
CC(=O)N1CCN(c2ccc(OCC3COC(Cn4ccnc4)(c4ccc(Cl)cc4Cl)O3)cc2)CC1 (stereo not drawn) [Ketoconazole] | 4 µg/mL | 3 µg/mL | 1 µg/mL | 4 µg/mL | 0.156 µg/mL | 4 µg/mL | 1 µg/mL | 4 µg/mL |  |  |  |  |  |  |  |  | 
D-NH2-FFKWQR(Mtr)KK-CONH2 |  |  |  |  |  |  |  |  |  |  |  |  |  |  |  |  | chemosensitization of cells overexpressing CaCdr1p to FLC [2]: chemosensitizing activity
CC1=C[C@H]2C(=O)O[C@H]3C[C@@H](C/C=C(\C)C[C@@H](C)/C=C/C=C(\C)[C@]2(O)[C@H](O)[C@@H]1O)O[C@@]1(CC[C@H](C)[C@@H](C)O1)C3 [Milbemycin β11] |  |  |  |  |  |  |  |  | >8 | >8 | >8 | >8 | >8 | >8 | >8 | >8 | 
Milbemycin α25 |  |  |  |  |  |  |  |  | >8 | >8 | 8 | >8 | 8 | >8 | 8 | 8 | 
